Results as given in patent US20200390755A1, “COMPOUND FOR TREATING NERVOUS SYSTEM DISEASES AND USE THEREOF” (SHAANXI MICOT TECHNOLOGY CO., LTD., priority 2018, published 2020).

The compounds below were run against T1, TrkB receptor (Mus musculus, UniProt P15209) (assay: Western blotting of p-TrkB and t-TrkB in primary cortical neuron cells). Conditions: 500 nM, 10 min at 37° C., Vehicle = 100, n = 3.
T1 construct: The culture continued until the primary cortical neuron cells mature; endogenous in cells; host or cells: primary cortical neurons from E18 mouse embryos (N171-82Q WT male x B6C3F1/J female)
T1 sequence (P15209 32-821): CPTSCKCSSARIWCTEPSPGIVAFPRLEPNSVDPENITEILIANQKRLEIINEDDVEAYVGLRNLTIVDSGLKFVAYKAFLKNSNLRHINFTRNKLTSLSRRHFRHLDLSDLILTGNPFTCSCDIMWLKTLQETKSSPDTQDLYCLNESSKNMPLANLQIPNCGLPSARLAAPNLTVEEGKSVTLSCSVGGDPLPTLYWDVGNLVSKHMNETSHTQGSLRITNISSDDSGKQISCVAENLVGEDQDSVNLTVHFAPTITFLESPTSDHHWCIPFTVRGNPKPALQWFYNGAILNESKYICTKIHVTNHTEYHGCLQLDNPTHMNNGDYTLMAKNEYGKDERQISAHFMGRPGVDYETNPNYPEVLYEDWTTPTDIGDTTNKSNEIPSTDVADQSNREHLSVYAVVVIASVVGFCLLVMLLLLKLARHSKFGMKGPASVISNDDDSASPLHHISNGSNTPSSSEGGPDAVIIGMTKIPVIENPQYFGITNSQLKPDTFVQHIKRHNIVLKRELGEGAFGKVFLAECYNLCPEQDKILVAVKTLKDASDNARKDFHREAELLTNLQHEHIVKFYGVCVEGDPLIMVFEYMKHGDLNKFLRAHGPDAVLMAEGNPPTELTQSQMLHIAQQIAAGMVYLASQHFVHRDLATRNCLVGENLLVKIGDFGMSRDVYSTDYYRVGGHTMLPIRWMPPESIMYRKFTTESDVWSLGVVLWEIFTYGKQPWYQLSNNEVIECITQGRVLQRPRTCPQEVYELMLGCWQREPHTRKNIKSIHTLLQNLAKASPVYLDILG
Format: cell-based
Method: N171-82Q WT male mice were mated with female B6C3F1/J hybrid mice. B6C3F1/J mice 18 days after pregnancy were anesthetized with isoflurane and dissected to remove embryos, which were then placed in a 10 cm Petri dish containing Leibovitz's buffer. The head of the embryo was cut off, and the brain was peeled off to obtain the whole mouse brain, which was then placed in a new 10 cm Petri dish containing Leibovitz's buffer. The neurocortex of the brain was separated and placed in a 15 mL centrifuge tube containing 3 mL Leibovitz's buffer. The centrifuge tube was centrifuged at 1000 rpm for 1 minute, and the Leibovitz's buffer was gently removed from the centrifuge tube, and then 750 μL of 0.25% trypsin-EDTA and 75 μL of 0.1% DNase (2000 U/mL) were added to digest at 37° C. for 15 min. 750 μL of DMEM medium containing 5% FBS was added to stop the digestion. The cells were mixed well, and centrifuged at 1000 rpm for 5 minutes. Trypins/DNase mixture was removed, and 750 μL of Neurobasal medium (B-27, Glutamax, P/S) was added. The cells were mixed by gently pipetting with a pipette for 30 times. The cell suspension was filtered with a 40 µm filter and transferred to another new 50 mL centrifuge tube. 10 μL of the cell suspension was added to 90 μL of DMEM (diluted 10 times), and 10 μL of the liquid mixture was placed on a hemocytometer so that the suspension filled between the cover slip and the counting plate for counting. The cells in the four large grids of the plate were counted, wherein for the cells across the line, only the cells on the left and upper side lines were counted. The following formulas were used:
Number of cells/mL=total number of cells in the four large grids/4×10^4/mL
Total number of cells/mL=total number of cells in the four large grids/4×10^4/mL×dilution factor.
After counting, the cells were diluted with Neurobasal selection medium so that 1 mL of Neurobasal culture medium contained 0.5×10^6 cells.
200 μL of PDL solution previously heated in a 37° C. water bath was added to each well of a 6-well plate, and incubated at 37° C. overnight to allow PDL to evenly coat the well plate. The PDL solution was absorbed and the plate was washed twice with PBS. Before use, the PBS remaining on the plate was absorbed and the cover was opened to dry the plate in a super clean bench. 2 mL of cell suspension was added to each well (37° C., 5% CO2), and the cells were cultured until adherence. The culture medium was replaced and the culture continued for 3 days, and then the growth status of neurons was observed. Every other 3 days, half of the medium was removed and replaced with fresh complete medium. The culture continued until the primary cortical neuron cells mature (usually mature on the 14th day of culture).
After the primary cortical neuron cells have matured, appropriate amount of freshly prepared culture medium was added until final volume in each well was 2 mL. The experiment included a blank control group (Vehicle), a positive control group BDNF (10 ng/mL), a control compound group (500 nM), and 6 test compound groups (500 nM). Three repeats were set for each dose. After incubating at 37° C. for 10 min, the culture solution was discarded and the cells were washed with pre-chilled PBS, and then 40 μL of pre-chilled lysate (RIPA buffer 10 mL and protease and phosphatase inhibitor 100 μL) was added to each well for lysis on ice for 30 min. After lysis, the cell was crushed by ultrasonic cell crusher, centrifuged at 14000 rpm for 20 min at 4° C. The supernatant was transferred to a new 1.5 mL centrifuge tube to extract protein. Western blotting experiments were used to detect the protein levels of (A) p-TrkB and t-TrkB; (B) p-AKT and t-AKT.
The software Sigmaplot 13.0 was used for statistical analysis of the data, and the data of each group was expressed as mean±standard error (x±SEM). […]
O=c1cc(-c2ccc(N3CCCCC3)cc2)oc2c(O)c(O)ccc12 [Example 1, 7,8-dihydroxy-2-(4-(piperidin-1-yl)phenyl)-4H-chromen-4-one] was tested, and the “Relative intensity of p-TrkB/t-TrkB protein” value was 216.727 ± 8.642.
In the case of COc1ccc2c(=O)cc(-c3ccc(N4CCCCC4)cc3)oc2c1OC [Example 2, 7,8-dimethoxy-2-(4-(piperidin-1-yl)phenyl)-4H-chromen-4-one], the “Relative intensity of p-TrkB/t-TrkB protein” value is reported as 206.453 ± 7.574.
With CN(C)C1CCN(c2ccc(-c3cc(=O)c4ccc(O)c(O)c4o3)cc2)CC1 [Example 3, 2-(4-(4-(dimethylamino)piperidin-1-yl)phenyl)-7,8-dihydroxy-4H-chromen-4-one] the “Relative intensity of p-TrkB/t-TrkB protein” value was 234.685 ± 14.695.
In the case of CC1(C)CCN(c2ccc(-c3cc(=O)c4ccc(O)c(O)c4o3)cc2)CC1 [Example 4, 2-(4-(4,4-dimethylpiperidin-1-yl)phenyl)-7,8-dihydroxy-4H-chromen-4-one], the “Relative intensity of p-TrkB/t-TrkB protein” value is reported as 216.198 ± 8.865.
CC1CC(C)CN(c2ccc(-c3cc(=O)c4ccc(O)c(O)c4o3)cc2)C1 (centres unmarked) [Example 5, 2-(4-(3,5-dimethylpiperidin-1-yl)phenyl)-7,8-dihydroxy-4H-chromen-4-one] was tested, and the “Relative intensity of p-TrkB/t-TrkB protein” value was 213.254 ± 12.379.

These compounds were tested on N171-82Q HD mice (assay: Rotarod experiment, HD mice). Conditions: 5 mg/kg/d intragastric, 12 w.
Format: in vivo, mouse
Method: 7-week-old N171-82Q HD male mice were paired with female B6C3F1/J hybrid mice to obtain newborn mice. From 21 days of age, male mice were housed in separate cages. 0.5 cm of mouse tail tissue was removed to extract DNA to determine the genotype of the mouse, such that N171-82Q HD mice and WT mice needed for the experiment were obtained. The mice were randomly divided into WT Vehicle group (normal mice), WT test compound group (administration group of normal mice, 5 mg/kg/d, n=10), HD Vehicle group (blank group of HD mice, n=15), HD test compound group (administration groups 1-5 of HD mice, 5 mg/kg/d, n=10). The test compound was suspended in 1% CMC-Na solution and administered by intragastric administration until the end of the study. The weights of the mice were measured every week. Behavioral tests were performed at 12 weeks, 18 weeks, and 24 weeks of age to investigate motor function. At 20 weeks, 3 samples of tissue from each group were used for western blotting and immunohistochemistry. At 24 weeks, MRI scans were performed. At the end of the study, the effect of the test compound on the mortality of mice was evaluated.
The software Sigmaplot 13.0 was used for statistical analysis of the data, and the data of each group was expressed as mean standard error (x±SEM). Behavioral test results were analyzed using two-way (genotype and processing factor) ANOVA and post-ho tests, the comparison and statistics of weight data were performed using two-way (genotype and age) ANOVA of repeated measures, and mortality was counted using Kaplan-Meier method. Other measurement data were analyzed by one-way ANOVA. P<0.05 was considered statistically significant.
The motor function of mice was evaluated by the rotarod experiment and three types of balance beam experiments. The shorter the time for mouse to cross the balance beam, and the longer the time to drop, the stronger the coordination ability of the mouse.
The maximum time for mice fatigue rotarod was set to 5 minutes, and the acceleration was set from 4 rpm up to 40 rpm. Time record was began when the mouse was placed on the rotarod. The time the mouse remained on the rod, i.e., drop latent period, was recorded to indicate its motor coordination ability. One day before the rotarod experiment, each mouse was trained for 5 minutes, and then rested in the cage after the training session. On the day of the experiment, the mice were placed on the rotating rotarod for three rounds of tests, with a 30-minute rest between tests before entering the next round of test. The result was the average of the three tests.
In the case of O=c1cc(-c2ccc(N3CCCCC3)cc2)oc2c(O)c(O)ccc12 [Example 1, 7,8-dihydroxy-2-(4-(piperidin-1-yl)phenyl)-4H-chromen-4-one], the “Time to drop (drop latent period), rotarod” value (from here on “Time to drop”) is reported as 95.90 ± 23.32 s.
With COc1ccc2c(=O)cc(-c3ccc(N4CCCCC4)cc3)oc2c1OC [Example 2, 7,8-dimethoxy-2-(4-(piperidin-1-yl)phenyl)-4H-chromen-4-one] the “Time to drop” value was 98.89 ± 21.35 s.
With CN(C)C1CCN(c2ccc(-c3cc(=O)c4ccc(O)c(O)c4o3)cc2)CC1 [Example 3, 2-(4-(4-(dimethylamino)piperidin-1-yl)phenyl)-7,8-dihydroxy-4H-chromen-4-one] the “Time to drop” value was 94.15 ± 30.15 s.
With CC1(C)CCN(c2ccc(-c3cc(=O)c4ccc(O)c(O)c4o3)cc2)CC1 [Example 4, 2-(4-(4,4-dimethylpiperidin-1-yl)phenyl)-7,8-dihydroxy-4H-chromen-4-one] the “Time to drop” value was 95.09 ± 27.23 s.
For CC1CC(C)CN(c2ccc(-c3cc(=O)c4ccc(O)c(O)c4o3)cc2)C1 (centres unmarked) [Example 5, 2-(4-(3,5-dimethylpiperidin-1-yl)phenyl)-7,8-dihydroxy-4H-chromen-4-one], the “Time to drop” value was 98.19 ± 29.17 s.

Same assay, conditions: 5 mg/kg/d intragastric, 18 w
For O=c1cc(-c2ccc(N3CCCCC3)cc2)oc2c(O)c(O)ccc12 [Example 1, 7,8-dihydroxy-2-(4-(piperidin-1-yl)phenyl)-4H-chromen-4-one], the “Time to drop” value was 101.03 ± 32.39 s.
With COc1ccc2c(=O)cc(-c3ccc(N4CCCCC4)cc3)oc2c1OC [Example 2, 7,8-dimethoxy-2-(4-(piperidin-1-yl)phenyl)-4H-chromen-4-one] the “Time to drop” value was 107.40 ± 27.48 s.
In the case of CN(C)C1CCN(c2ccc(-c3cc(=O)c4ccc(O)c(O)c4o3)cc2)CC1 [Example 3, 2-(4-(4-(dimethylamino)piperidin-1-yl)phenyl)-7,8-dihydroxy-4H-chromen-4-one], the “Time to drop” value is reported as 103.40 ± 37.86 s.
For CC1(C)CCN(c2ccc(-c3cc(=O)c4ccc(O)c(O)c4o3)cc2)CC1 [Example 4, 2-(4-(4,4-dimethylpiperidin-1-yl)phenyl)-7,8-dihydroxy-4H-chromen-4-one], the “Time to drop” value was 99.86 ± 30.27 s.
For CC1CC(C)CN(c2ccc(-c3cc(=O)c4ccc(O)c(O)c4o3)cc2)C1 (centres unmarked) [Example 5, 2-(4-(3,5-dimethylpiperidin-1-yl)phenyl)-7,8-dihydroxy-4H-chromen-4-one], the “Time to drop” value was 101.03 ± 32.39 s.

Same assay, conditions: 5 mg/kg/d intragastric, 24 w
O=c1cc(-c2ccc(N3CCCCC3)cc2)oc2c(O)c(O)ccc12 [Example 1, 7,8-dihydroxy-2-(4-(piperidin-1-yl)phenyl)-4H-chromen-4-one] was tested, and the “Time to drop” value was 83.55 ± 29.07 s.
For COc1ccc2c(=O)cc(-c3ccc(N4CCCCC4)cc3)oc2c1OC [Example 2, 7,8-dimethoxy-2-(4-(piperidin-1-yl)phenyl)-4H-chromen-4-one], the “Time to drop” value was 89.67 ± 30.76 s.
For CN(C)C1CCN(c2ccc(-c3cc(=O)c4ccc(O)c(O)c4o3)cc2)CC1 [Example 3, 2-(4-(4-(dimethylamino)piperidin-1-yl)phenyl)-7,8-dihydroxy-4H-chromen-4-one], the “Time to drop” value was 90.06 ± 33.45 s.
CC1(C)CCN(c2ccc(-c3cc(=O)c4ccc(O)c(O)c4o3)cc2)CC1 [Example 4, 2-(4-(4,4-dimethylpiperidin-1-yl)phenyl)-7,8-dihydroxy-4H-chromen-4-one] was tested, and the “Time to drop” value was 79.15 ± 34.17 s.
With CC1CC(C)CN(c2ccc(-c3cc(=O)c4ccc(O)c(O)c4o3)cc2)C1 (centres unmarked) [Example 5, 2-(4-(3,5-dimethylpiperidin-1-yl)phenyl)-7,8-dihydroxy-4H-chromen-4-one] the “Time to drop” value was 81.71 ± 30.15 s.
